Publication PMC10452181, “Synthesis and Biological Evaluation of Cyclobutane-Based β3 Integrin Antagonists: A Novel Approach to Targeting Integrins for Cancer Therapy” (Cancers, 2023)

Experiments:
αvβ3 = molecular target: T1, αvβ3 (Homo sapiens, UniProt P05106+P06756); assay: Sk-Mel-2 cell adhesion to immobilised fibronectin (cell-binding assay, MTT readout); type: cell-based; details: Sk-Mel-2 adhesion to Fn, mean ± SD
T1 construct: endogenous in cells; host or cells: SK-Mel-2 melanoma cells
Description: First, 96-well plates (Corning, VWR) were coated overnight at 4 °C with 0.5 μg/well fibronectin (Sigma). SK-Mel-2 cells were trypsinised, washed and resuspended in RPMI medium only at 10^5 cells/mL. Cells (100 µL/well) were treated with compound (DMSO final concentration 0.1%) at the indicated concentration for 4 hrs on a rotary shaker. Plates were washed (3 × PBS) and blocked with PBS/5% BSA for 2 hrs at 37 °C prior to adding the cells. Cells were incubated on the plates at 37 °C in a humidified chamber with 5% CO2 for 1 hr. The plates were washed 3× with PBS and a 200 µL/well RPMI medium containing 10% FCS added. The plates were incubated overnight at 37 °C as above. Finally, 0.5 mg/mL of 3-(4,5-dimethythiazol-2-yl)-2,5-diphenyl tetrazolium bromide (MTT) was added to each well and the plates incubated for a further 4 h. The medium was removed, and the insoluble formazan dissolved in 150 µL of DMSO. Absorbance was measured at 540 nm using a Thermo Multiskan EX (Thermofisher, UK)and Ascent Software (v2.6). Total binding was determined based on controls lacking any compounds (100% binding) in fibronectin-coated wells and uncoated wells blocked with BSA (0% binding) and corrected for background (no cells, fibronectin-coated).
As an initial test of anti-β3 activity, the ability of compounds to inhibit the adhesion of melanoma cells expressing high levels of αvβ3 and low levels of other RGD-binding integrins such as αvβ5 and α5β1 to immobilised fibronectin was evaluated.
Cells were seeded onto precoated plates in the presence or absence of putative antagonists and the number of adherent cells quantified colorimetrically.

Sk-Mel-2 = assay: in vitro; type: cell-based, human
Description: Before use in cell-based assays of integrin function, the effect of compounds on cell proliferation was tested using the MTT assay to avoid adhesion results being confounded by cell death (Supplementary Table S1). The effect of compounds on cell adhesion was then initially tested at a single, nontoxic concentration to identify active antagonists for further characterisation; those displaying a promising activity in the adhesion assay were tested at a wider range of concentrations to determine the IC50 (Table 2). […] Nevertheless, it is a cost-effective initial screening method. page 4: Table S1. Cytotoxicity of compounds on the cell lines used in the functional assays (measured by MTT assay). Cells (2000 cells/well for Sk-Mel-2; 1 x 10^4 cells/mL for M14) were incubated for 96 hours at 37 ° C in a total volume of 200 μL/well (180 μL medium + 20 μ L test compound solution). After 96 hours, the medium was replaced by fresh medium containing 0.5 mg/ml (end conc.) MTT per well, incubated for 4 h then the plate processed and read as described in the main text. […] ICT9053 41 naphthyridine 1 NHSO2Mes H Ester 52.6 ± 0.6 72.7 ± 9.8 ICT9065 42 naphthyridine 1 H H Ester >100 - ICT9079 43 naphthyridine 0 NHSO2Mes H Ester ~100 - ICT9061 44 naphthyridineT 1 NHSO2Mes H Ester 46.8 ± 10.7 - […] Ester 65.4 ± 11.1 >100 […] Ester 9.6 ± 5.7 >100 […] Ester >100 - […] Ester 54.6 ± 11.0 - […] Ester >5 3.3 ± 0.8 […] ICT9028 51 pyrimidine 2 NHSO2Ph H Acid >100 - ICT9031 52 pyrimidineT 1 NHSO2Mes H Acid >100 - ICT9090 53 pyrimidineT 2 NHSO2Mes H Acid >50 - ICT9029 54 pyrimidineT 2 NHSO2Ph H Acid >100 - ICT9063 55 naphthyridine 1 NHSO2Mes H Acid 61.7 ± 2.8 - […] Acid 45.5 ± 7.9 >100 […] 42.5 ± 1.8 >50 RGDS >50 - T trans configuration of cyclobutane sidechains.

αIIbβ3 = molecular target: T2, αIIbβ3 (Homo sapiens, UniProt P05106+P08514); assay: αIIbβ3/fibrinogen purified protein binding ELISA; details: mean ± SD; for IC50: read-out: IC50 (αIIbβ3/Fg)
T2 construct: purchased Sigma
Description: ELISA assays were performed as previously described with minor modifications. Briefly, serial dilutions of compounds were prepared in dimethyl sulfoxide (DMSO). C8 Maxi Immuno modules (Fisher Scientific) were incubated overnight at 4 °C with 0.5 μg/well of fibrinogen (Sigma) in sterile phosphate buffered saline (PBS, 0.2 g/L KCl, 8.0 g/L NaCl, 0.2 KH2PO4, 1.15 g/L Na2HPO4, pH 7.4). All subsequent wash steps were performed using 25 mM Tris, pH 7.6, 150 mM NaCl, 1 mM MnCl2, 1 mg/mL BSA, and binding/inhibition was carried out in 25 mM Tris, pH 7.6, 150 mM NaCl, 1 mM MnCl2, 1 mM MgCl2, 1 mM CaCl2, 1 mg/mL BSA.
Wells were washed and blocked with a blocking solution (PBS, 0.1% Tween 20, 3% BSA) for 1 h at 37 °C. Compounds were added to the wells at indicated concentrations (final 0.5% DMSO) in the presence of 0.5 µg/well αIIbβ3 (Sigma) and incubated at room temp for 1 h. After 3 washes, primary anti-αIIb (1:200 dilution, Santa Cruz Biotech, Heidelberg, Germany) and antigoat–HRP (1:500 dilution, Dako, Agilent, Santa Clara, CA, USA) were added at room temp for 1 h. The wells were washed and incubated with 0.1 mg/mL tetra-methylbenzidine (Sigma) for 25 min and the reaction was stopped with 1N H2SO4 (100 μL/well). The absorbance was measured at 450 nm using a Multiscan Spectrum reader (Thermo Scientific, Thermofisher, UK) and SkanIT RE (v2.4.4.5) software. Results were plotted as percent binding vs. log concentration and IC50 values determined.

T2 sequence (P08514 32-887 limits assumed): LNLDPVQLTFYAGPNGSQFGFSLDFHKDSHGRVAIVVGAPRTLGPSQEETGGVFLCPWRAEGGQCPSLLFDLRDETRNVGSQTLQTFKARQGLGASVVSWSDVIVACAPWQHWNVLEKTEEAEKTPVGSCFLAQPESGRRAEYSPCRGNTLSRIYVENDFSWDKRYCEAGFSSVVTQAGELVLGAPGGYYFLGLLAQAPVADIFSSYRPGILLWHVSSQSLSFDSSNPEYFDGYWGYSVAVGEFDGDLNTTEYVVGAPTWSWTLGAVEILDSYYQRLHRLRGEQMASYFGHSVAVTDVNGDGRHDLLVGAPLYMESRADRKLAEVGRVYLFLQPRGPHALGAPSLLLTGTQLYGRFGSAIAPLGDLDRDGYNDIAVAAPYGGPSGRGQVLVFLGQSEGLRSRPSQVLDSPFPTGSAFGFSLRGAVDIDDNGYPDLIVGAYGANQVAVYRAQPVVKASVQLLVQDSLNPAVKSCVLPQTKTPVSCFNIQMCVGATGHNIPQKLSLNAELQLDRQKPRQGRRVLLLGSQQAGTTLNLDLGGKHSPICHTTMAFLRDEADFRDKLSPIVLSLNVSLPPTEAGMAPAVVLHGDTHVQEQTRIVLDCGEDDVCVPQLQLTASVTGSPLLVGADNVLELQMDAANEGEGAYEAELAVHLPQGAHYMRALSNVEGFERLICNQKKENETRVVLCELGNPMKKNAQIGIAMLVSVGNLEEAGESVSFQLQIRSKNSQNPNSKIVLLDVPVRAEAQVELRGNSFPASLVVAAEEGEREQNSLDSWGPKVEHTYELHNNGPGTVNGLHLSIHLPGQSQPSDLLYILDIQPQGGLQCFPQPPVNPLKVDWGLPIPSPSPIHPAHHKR
T2 sequence (P08514 891-1039 partner limits assumed): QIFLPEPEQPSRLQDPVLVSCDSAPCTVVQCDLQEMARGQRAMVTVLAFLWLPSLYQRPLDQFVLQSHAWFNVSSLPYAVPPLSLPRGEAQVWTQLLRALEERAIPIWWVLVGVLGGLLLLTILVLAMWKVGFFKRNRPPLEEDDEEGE
T2 sequence (P05106 27-788): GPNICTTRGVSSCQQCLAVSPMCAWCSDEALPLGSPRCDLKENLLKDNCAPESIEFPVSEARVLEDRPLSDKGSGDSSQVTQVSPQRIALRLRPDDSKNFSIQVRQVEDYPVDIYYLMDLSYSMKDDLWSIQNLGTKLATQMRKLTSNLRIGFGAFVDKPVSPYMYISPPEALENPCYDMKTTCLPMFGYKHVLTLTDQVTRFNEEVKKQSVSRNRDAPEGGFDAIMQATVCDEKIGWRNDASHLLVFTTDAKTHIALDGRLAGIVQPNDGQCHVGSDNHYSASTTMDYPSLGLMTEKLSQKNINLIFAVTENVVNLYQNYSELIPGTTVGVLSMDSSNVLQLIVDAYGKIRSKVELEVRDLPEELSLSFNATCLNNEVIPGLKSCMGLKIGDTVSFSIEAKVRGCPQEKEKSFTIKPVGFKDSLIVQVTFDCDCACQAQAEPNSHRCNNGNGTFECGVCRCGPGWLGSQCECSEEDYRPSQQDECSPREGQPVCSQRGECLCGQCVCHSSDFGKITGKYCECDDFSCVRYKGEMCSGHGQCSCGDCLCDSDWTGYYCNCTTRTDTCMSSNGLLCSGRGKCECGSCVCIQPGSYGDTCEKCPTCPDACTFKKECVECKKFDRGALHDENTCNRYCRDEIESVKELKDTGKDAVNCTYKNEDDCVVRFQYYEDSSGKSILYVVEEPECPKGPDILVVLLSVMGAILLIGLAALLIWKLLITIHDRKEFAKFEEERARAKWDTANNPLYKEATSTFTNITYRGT
T1 sequence (P06756 31-889 limits assumed): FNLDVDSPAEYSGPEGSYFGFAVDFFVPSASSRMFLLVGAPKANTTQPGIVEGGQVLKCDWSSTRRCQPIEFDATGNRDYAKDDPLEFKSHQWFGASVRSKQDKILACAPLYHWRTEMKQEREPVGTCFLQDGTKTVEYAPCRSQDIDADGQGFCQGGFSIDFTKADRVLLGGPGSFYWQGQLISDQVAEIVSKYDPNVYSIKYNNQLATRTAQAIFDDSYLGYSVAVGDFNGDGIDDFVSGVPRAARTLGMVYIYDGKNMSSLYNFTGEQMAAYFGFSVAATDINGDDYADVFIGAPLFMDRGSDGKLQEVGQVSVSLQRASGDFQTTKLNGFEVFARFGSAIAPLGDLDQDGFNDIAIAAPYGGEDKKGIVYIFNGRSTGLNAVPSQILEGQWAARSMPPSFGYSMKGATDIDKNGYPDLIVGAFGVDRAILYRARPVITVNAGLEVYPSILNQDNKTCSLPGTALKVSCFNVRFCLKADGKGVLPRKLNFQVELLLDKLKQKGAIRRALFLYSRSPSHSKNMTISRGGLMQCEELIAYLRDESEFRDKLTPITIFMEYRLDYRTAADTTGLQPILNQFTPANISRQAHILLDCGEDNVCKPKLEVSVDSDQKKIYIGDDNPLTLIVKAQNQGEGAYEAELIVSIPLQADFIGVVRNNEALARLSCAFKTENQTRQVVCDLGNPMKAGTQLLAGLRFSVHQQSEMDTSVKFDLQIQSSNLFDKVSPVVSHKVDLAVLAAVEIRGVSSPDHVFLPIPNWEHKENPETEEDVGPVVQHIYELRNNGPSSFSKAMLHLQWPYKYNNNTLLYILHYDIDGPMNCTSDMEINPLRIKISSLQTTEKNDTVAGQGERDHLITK
T1 sequence (P06756 891-1048 partner limits assumed): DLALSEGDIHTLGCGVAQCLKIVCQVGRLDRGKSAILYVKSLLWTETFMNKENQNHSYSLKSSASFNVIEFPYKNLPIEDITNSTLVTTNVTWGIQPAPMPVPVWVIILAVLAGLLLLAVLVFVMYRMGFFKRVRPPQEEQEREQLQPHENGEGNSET
T1 sequence (P05106 27-788): as the sequence (P05106 27-788) above

| SMILES | Adhesion % Inhibition @ 50 μM (αvβ3) [%] | IC50 (Sk-Mel-2) [µM] | % Inhibition (αIIbβ3/Fg) @ 50 μM (αIIbβ3) [%] | Adhesion % Inhibition @ 5 μM (αvβ3) [%] | IC50 (αvβ3) [µM] | IC50 (αIIbβ3) [µM] |
| --- | --- | --- | --- | --- | --- | --- |
| COC(=O)[C@H](CNC(=O)C1CC(CCCNc2ncccn2)C1)NS(=O)(=O)c1ccccc1 (stereo partly drawn) [ICT9023 23, (S)-methyl 2-(phenylsulfonamido)-3-((1r,3r)-3-(3-(pyrimidin-2-ylamino)propyl)cyclobutanecarboxamido)propanoate] | 7.4 ± 15.1 | > 100 | 10.9 ± 15.4 | – | – | – |
| COC(=O)[C@H](CNC(=O)[C@H]1C[C@H](CCNc2ncccn2)C1)NS(=O)(=O)c1c(C)cc(C)cc1C [ICT9024 27, (S)-methyl 3-((1r,3s)-3-(2-(pyrimidin-2-ylamino)ethyl)cyclobutanecarboxamido)-2-(2,4,6-trimethylphenylsulfonamido)propanoate] | 94.2 ± 4.1 | 55.9 ± 4.9 | 33.5 ± 2.8 | 39.4 ± 17.1 | 13 ± 3 | 50 ± 5 |
| O=C(O)[C@H](CNC(=O)[C@H]1C[C@H](CCCNc2ncccn2)C1)NS(=O)(=O)c1ccccc1 [ICT9028 51, (S)-2-(phenylsulfonamido)-3-((1r,3r)-3-(3-(pyrimidin-2-ylamino)propyl)cyclobutanecarboxamido)propanoic acid] | 31.8 ± 10.0 | > 100 | 93.6 ± 2.2 | – | > 50 | 7.8 ± 2.8 |
| O=C(O)[C@H](CNC(=O)[C@H]1C[C@@H](CCCNc2ncccn2)C1)NS(=O)(=O)c1ccccc1 [ICT9029 54, (S)-2-(phenylsulfonamido)-3-((1s,3s)-3-(3-(pyrimidin-2-ylamino)propyl)cyclobutanecarboxamido)propanoic acid] | 42.5 ± 14.1 | > 100 | 100 ± 6 | – | > 50 | 3.3 ± 3.3 |
| COC(=O)[C@H](CNC(=O)C1CC(CCc2ccc3cccnc3n2)C1)NS(=O)(=O)c1c(C)cc(C)cc1C (stereo partly drawn) [ICT9061 44, (S)-methyl 3-((1s,3s)-3-(2-(1,8-naphthyridin-2-yl)ethyl)cyclobutanecarboxamido)-2-(2,4,6-trimethylphenylsulfonamido)propanoate] | – | 46.8 ± 10.7 | – | 32.4 ± 16.1 | – | – |
| COC(=O)CCNC(=O)C1CC(CCc2ccc3cccnc3n2)C1 (stereo not shown) [ICT9065 42, Methyl 3-((1r,3s)-3-(2-(1,8-naphthyridin-2-yl)ethyl)cyclobutanecarboxamido)propanoate] | – | > 100 | – | – | – | – |
| COC(=O)CCNC(=O)[C@H]1C[C@@H](CCc2ccc3c(n2)NCCC3)C1 [ICT9066 47, Methyl 3-((1r,3s)-3-(2-(5,6,7,8-tetrahydro-1,8-naphthyridin-2-yl)ethyl)cyclobutanecarboxamido)propanoate] | 22.4 ± 29.3 | > 100 | – | – | – | – |
| COC(=O)[C@H](CNC(=O)C1CC(Cc2ccc3c(n2)NCCC3)C1)NS(=O)(=O)c1c(C)cc(C)cc1C (stereo partly drawn) [ICT9080 48, (S)-methyl 3-((1s,3r)-3-((5,6,7,8-tetrahydro-1,8-naphthyridin-2-yl)methyl)cyclobutanecarboxamido)-2-(2,4,6-trimethylphenylsulfonamido)propanoate] | – | 54.6 ± 11 | – | 61.5 ± 11.1 | – | – |

Continued, values first:

| Adhesion % Inhibition @ 50 μM (αvβ3) [%] | IC50 (Sk-Mel-2) [µM] | % Inhibition (αIIbβ3/Fg) @ 50 μM (αIIbβ3) [%] | Adhesion % Inhibition @ 5 μM (αvβ3) [%] | IC50 (αvβ3) [µM] | IC50 (αIIbβ3) [µM] | SMILES |
| --- | --- | --- | --- | --- | --- | --- |
| 22.2 ± 22.3 | > 100 | – | – | – | – | COC(=O)[C@@H](CNC(=O)[C@H]1C[C@@H](CCCNc2ncccn2)C1)NS(=O)(=O)c1ccccc1 [ICT9021 25, (R)-methyl 2-(phenylsulfonamido)-3-((1r,3s)-3-(3-(pyrimidin-2-ylamino)propyl)cyclobutanecarboxamido)propanoate] |
| 92.5 ± 8.1 | 55.3 ± 1.6 | 35.0 ± 11.3 | 0 ± 19.6 | 38 ± 11 | > 100 | COC(=O)[C@H](CNC(=O)[C@H]1C[C@@H](CCCNc2ncccn2)C1)NS(=O)(=O)c1c(C)cc(C)cc1C [ICT9025 28, (S)-methyl 3-((1s,3s)-3-(3-(pyrimidin-2-ylamino)propyl)cyclobutanecarboxamido)-2-(2,4,6-trimethylphenylsulfonamido)propanoate] |
| – | > 100 | 31.6 ± 10.7 | – | – | – | COC(=O)[C@H](CNC(=O)[C@H]1C[C@@H](CCCNc2ncccn2)C1)NS(=O)(=O)c1ccccc1 [ICT9026 29, (S)-methyl 2-(phenylsulfonamido)-3-((1s,3s)-3-(3-(pyrimidin-2-ylamino)propyl)cyclobutanecarboxamido)propanoate] |
| 51 ± 9.0 | 90.2 ± 4.3 | 91.2 ± 9.6 | 4.5 ± 19.6 | 50 ± 7 | 3.5 ± 1.9 | Cc1cc(C)c(S(=O)(=O)N[C@@H](CNC(=O)C2CC(CCNc3ncccn3)C2)C(=O)O)c(C)c1 (stereo partly drawn) [ICT9030 50, (S)-3-((1s,3r)-3-(2-(pyrimidin-2-ylamino)ethyl)cyclobutanecarboxamido)-2-(2,4,6-trimethylphenylsulfonamido)propanoic acid] |
| – | 65.2 ± 1.3 | – | 48.7 ± 30.6 | – | – | COC(=O)[C@H](CNC(=O)C1CC(CCc2ccc3cccnc3n2)C1)NS(=O)(=O)c1ccccc1 (stereo partly drawn) [ICT9054 40, (S)-methyl 3-((1r,3r)-3-(2-(1,8-naphthyridin-2-yl)ethyl)cyclobutanecarboxamido)-2-(phenylsulfonamido)propanoate] |
| – | ~100 | – | 33.5 ± 26.2 | – | – | COC(=O)[C@H](CNC(=O)C1CC(Cc2ccc3cccnc3n2)C1)NS(=O)(=O)c1c(C)cc(C)cc1C (stereo partly drawn) [ICT9079 43, (S)-methyl 3-((1s,3r)-3-((1,8-naphthyridin-2-yl)methyl)cyclobutanecarboxamido)-2-(2,4,6-trimethylphenylsulfonamido)propanoate] |
